Test results: patent publication US8012979B2, “Compounds and their uses 707” (AstraZeneca AB, priority 2007, dated 2011)

target: T1, human active recombinant p38α-6His tagged (Homo sapiens, UniProt Q16539); experiment: p38 Alpha Enzyme Assay (AlphaScreen, biotinylated-ATF2 substrate); type: biochemical; conditions: pre-incubated 4 hours at 37° C., reaction initiated with ATP; 0.5 nM enzyme; read-out: p38 pIC50 (converted)
T1 construct: 6His
T1 sequence (Q16539 whole entry): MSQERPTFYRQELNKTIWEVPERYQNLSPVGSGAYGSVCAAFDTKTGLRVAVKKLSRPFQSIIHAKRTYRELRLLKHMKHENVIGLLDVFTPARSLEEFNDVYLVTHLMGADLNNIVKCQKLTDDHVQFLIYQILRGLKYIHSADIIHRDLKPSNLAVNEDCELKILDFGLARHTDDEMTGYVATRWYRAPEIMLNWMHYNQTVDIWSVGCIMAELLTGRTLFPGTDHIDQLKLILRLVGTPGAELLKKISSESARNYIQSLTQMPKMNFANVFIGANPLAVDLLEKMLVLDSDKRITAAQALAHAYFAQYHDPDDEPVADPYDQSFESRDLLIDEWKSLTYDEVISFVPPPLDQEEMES

IC50 | Compound
1.26 nM | Cc1ccc(C(=O)NC2CC2)cc1-c1ccc2c(=O)n(Cc3ccccc3)cc(C(=O)NCCN(C)C)c2c1 [Example 47, 2-Benzyl-6-(5-(cyclopropylcarbamoyl)-2-methylphenyl)-N-(2-(dimethylamino)ethyl)-1-oxo-1,2-dihydroisoquinoline-4-carboxamide]
1.26 nM | Cc1ccc(C(=O)NC2CC2)cc1-c1ccc2c(=O)n(Cc3ccc(C(=O)N4CCN(C)CC4)cc3)ccc2c1 [Example 20, N-Cyclopropyl-4-methyl-3-(2-(4-(4-methylpiperazine-1-carbonyl)benzyl)-1-oxo-1,2-dihydroisoquinolin-6-yl)benzamide]
0.501 nM | Cc1ccc(C(=O)NC2CC2)cc1-c1ccc2c(=O)n(Cc3ccc(OCCN(C)C)cc3)ccc2c1 [Example 32, N-Cyclopropyl-3-(2-(4-(2-(dimethylamino)ethoxy)benzyl)-1-oxo-1,2-dihydroisoquinolin-6-yl)-4-methylbenzamide]
2 nM | Cc1ccc(C(=O)NC2CC2)cc1-c1ccc2c(=O)n(Cc3ccc(C(=O)N(C)CCN(C)C)cc3)ccc2c1 [Example 18, N-Cyclopropyl-3-(2-(4-((2-(dimethylamino)ethyl)(methyl)carbamoyl)benzyl)-1-oxo-1,2-dihydroisoquinolin-6-yl)-4-methylbenzamide]
2 nM | Cc1ccc(C(=O)NC2CC2)cc1-c1ccc2c(=O)n(Cc3ccccc3)cc(C(=O)NC3CCN(C)CC3)c2c1 [Example 50, 2-Benzyl-6-{5-[(cyclopropylamino)carbonyl]-2-methylphenyl}-N-(1-methylpiperidin-4-yl)-1-oxo-1,2-dihydroisoquinoline-4-carboxamide]
0.0501 nM | Cc1c(F)cc(C(=O)NC2CC2)cc1-c1ccc2c(=O)n(CC3CC3)cc(CN3CCCN(C)CC3)c2c1 [Example 75, N-Cyclopropyl-3-(2-(cyclopropylmethyl)-4-((4-methyl-1,4-diazepan-1-yl)methyl)-1-oxo-1,2-dihydroisoquinolin-6-yl)-5-fluoro-4-methylbenzamide]
1 nM | Cc1ccc(C(=O)NC2CC2)cc1-c1ccc2c(=O)n(Cc3ccc(CN(C)C(C)(C)C)cc3)ccc2c1 [Example 27, 3-(2-(4-((Tert-butyl(methyl)amino)methyl)benzyl)-1-oxo-1,2-dihydroisoquinolin-6-yl)-N-cyclopropyl-4-methylbenzamide]
3.16 nM | Cc1ccc(C(=O)NC2CC2)cc1-c1ccc2c(=O)n(Cc3ccc(CN4CCN(C)CC4)cc3)ccc2c1 [Example 26, N-Cyclopropyl-4-methyl-3-(2-(4-((4-methylpiperazin-1-yl)methyl)benzyl)-1-oxo-1,2-dihydroisoquinolin-6-yl)benzamide]
2.51 nM | Cc1ccc(C(=O)NC2CC2)cc1-c1ccc2c(=O)n(Cc3ccc(CN(C)C)cc3)ccc2c1 [Example 14, N-Cyclopropyl-3-[2-(4-dimethylaminomethyl-benzyl)-1-oxo-1,2-dihydro-isoquinolin-6-yl]-4-methyl-benzamide]
10 nM | Cc1ccc(C(=O)NC2CC2)cc1-c1ccc2c(=O)n(Cc3ccc(CN(C)C)cc3)c(C)cc2c1 [Example 96, N-Cyclopropyl-3-(2-(4-((dimethylamino)methyl)benzyl)-3-methyl-1-oxo-1,2-dihydroisoquinolin-6-yl)-4-methylbenzamide]
3.98 nM | Cc1ccc(C(=O)NC2CC2)cc1-c1ccc2c(=O)n(CC3CC3)cc(C(=O)NCCN(C)C)c2c1 [Example 40, 6-(5-(Cyclopropylcarbamoyl)-2-methylphenyl)-2-(cyclopropylmethyl)-N-(2-(dimethylamino)ethyl)-1-oxo-1,2-dihydroisoquinoline-4-carboxamide]
3.16 nM | Cc1ccc(C(=O)NC2CC2)cc1-c1ccc2c(=O)n(Cc3ccc(CN4CCCC4)cc3)ccc2c1 [Example 25, N-Cyclopropyl-4-methyl-3-(1-oxo-2-(4-(pyrrolidin-1-ylmethyl)benzyl)-1,2-dihydroisoquinolin-6-yl)benzamide]
0.316 nM | Cc1c(F)cc(C(=O)NC2CC2)cc1-c1ccc2c(=O)n(CC3CC3)cc(CN3CCC[C@H]3CN)c2c1 [Example 128, (S)-3-(4-((2-(Aminomethyl)pyrrolidin-1-yl)methyl)-2-(cyclopropylmethyl)-1-oxo-1,2-dihydroisoquinolin-6-yl)-N-cyclopropyl-5-fluoro-4-methylbenzamide]
2.51 nM | Cc1ccc(C(=O)NC2CC2)cc1-c1ccc2c(=O)n(Cc3ccc(Br)cc3)ccc2c1 [Example 3, 3-[2-(4-Bromo-benzyl)-1-oxo-1,2-dihydro-isoquinolin-6-yl]-N-cyclopropyl-4-methyl-benzamide]
0.158 nM | Cc1c(F)cc(C(=O)NC2CC2)cc1-c1ccc2c(=O)n(CC3CC3)cc(CN3CCNC(CO)CC3)c2c1 (stereo not shown) [Example 127, N-Cyclopropyl-3-[2-cyclopropylmethyl-4-(5-hydroxymethyl-[1,4]diazepan-1-ylmethyl)-1-oxo-1,2-dihydro-isoquinolin-6-yl]-5-fluoro-4-methyl-benzamide]
1 nM | Cc1ccc(C(=O)NC2CC2)cc1-c1ccc2c(=O)n(Cc3ccc(C(=O)NCCN(C)C)cc3)ccc2c1 [Example 19, N-Cyclopropyl-3-(2-(4-(2-(dimethylamino)ethylcarbamoyl)benzyl)-1-oxo-1,2-dihydroisoquinolin-6-yl)-4-methylbenzamide]
1.26 nM | Cc1ccc(C(=O)NC2CC2)cc1-c1ccc2c(=O)n(Cc3ccc(N4CCN(C)CC4)cc3)ccc2c1 [Example 4, N-Cyclopropyl-4-methyl-3{2-[4-(4-methyl-piperazin-1-yl)-benzyl]-1-oxo-1,2-dihydro-isoquinolin-6-yl}-benzamide]
0.398 nM | Cc1ccc(C(=O)NC2CC2)cc1-c1ccc2c(=O)n(CC3CC3)cc(CN3CCCN(CCO)CC3)c2c1 [Example 72, N-Cyclopropyl-3-(2-(cyclopropylmethyl)-4-((4-(2-hydroxyethyl)-1,4-diazepan-1-yl)methyl)-1-oxo-1,2-dihydroisoquinolin-6-yl)-4-methylbenzamide]
0.1 nM | Cc1c(F)cc(C(=O)NC2CC2)cc1-c1ccc2c(=O)n(CC3CC3)cc(CN3CCCNCC3)c2c1 [Example 92, 3-(4-((1,4-Diazepan-1-yl)methyl)-2-(cyclopropylmethyl)-1-oxo-1,2-dihydroisoquinolin-6-yl)-N-cyclopropyl-5-fluoro-4-methylbenzamide]
3.16 nM | Cc1ccc(C(=O)NC2CC2)cc1-c1ccc2c(=O)n(Cc3cccc(OCCCN(C)C)c3)c(C)cc2c1 [Example 94, N-Cyclopropyl-3-(2-(3-(3-(dimethylamino)propoxy)benzyl)-3-methyl-1-oxo-1,2-dihydroisoquinolin-6-yl)-4-methylbenzamide]
0.158 nM | Cc1c(F)cc(C(=O)NC2CC2)cc1-c1ccc2c(=O)n(CC3CC3)cc(CN3CCN(CCO)CC3)c2c1 [Example 90, N-Cyclopropyl-3-(2-(cyclopropylmethyl)-4-((4-(2-hydroxyethyl)piperazin-1-yl)methyl)-1-oxo-1,2-dihydroisoquinolin-6-yl)-5-fluoro-4-methylbenzamide]
7.94 nM | C=CCn1ccc2cc(-c3cc(C(=O)NC4CC4)ccc3C)ccc2c1=O [Example 12, 3-(2-Allyl-1-oxo-1,2-dihydro-isoquinolin-6-yl)-N-cyclopropyl-4-methyl-benzamide]
0.316 nM | Cc1ccc(C(=O)NC2CC2)cc1-c1ccc2c(=O)n(CC3CC3)cc(CN3CCCN(C)CC3)c2c1 [Example 59, N-Cyclopropyl-3-[2-cyclopropylmethyl-4-(4-methyl-[1,4]diazepan-1-ylmethyl)-1-oxo-1,2-dihydro-isoquinolin-6-yl]-4-methyl-benzamide]
0.316 nM | Cc1c(F)cc(C(=O)NC2CC2)cc1-c1ccc2c(=O)n(CC3CC3)cc(CN3C[C@@H](C)N[C@@H](C)C3)c2c1 [Example 80, N-Cyclopropyl-3-(2-(cyclopropylmethyl)-4-(((3S,5R)-3,5-dimethylpiperazin-1-yl)methyl)-1-oxo-1,2-dihydroisoquinolin-6-yl)-5-fluoro-4-methylbenzamide]
31.6 nM | Cc1ccc(C(=O)NC2CC2)cc1-c1ccc2c(=O)n(Cc3ccncc3)cc(C(=O)N(C)C3CCN(C)CC3)c2c1 [Example 55, 6-(5-(Cyclopropylcarbamoyl)-2-methylphenyl)-N-methyl-N-(1-methylpiperidin-4-yl)-1-oxo-2-(pyridin-4-ylmethyl)-1,2-dihydroisoquinoline-4-carboxamide]
1 nM | Cc1c(F)cc(C(=O)NC2CC2)cc1-c1ccc2c(=O)n(CC3CC3)cc(CN[C@@H]3CCNC3)c2c1 [Example 110, (R)—N-Cyclopropyl-3-(2-(cyclopropylmethyl)-1-oxo-4-((pyrrolidin-3-ylamino)methyl)-1,2-dihydroisoquinolin-6-yl)-5-fluoro-4-methylbenzamide]
0.794 nM | Cc1ccc(C(=O)NC2CC2)cc1-c1ccc2c(=O)n(Cc3ccccc3)ccc2c1 [Example 1, 3-(2-Benzyl-1-oxo-1,2-dihydro-isoquinolin-6-yl)-N-cyclopropyl-4-methyl-benzamide]
3.16 nM | Cc1ccc(C(=O)NC2CC2)cc1-c1ccc2c(=O)n(Cc3ccc(S(C)(=O)=O)cc3)ccc2c1 [Example 5, N-Cyclopropyl-3-[2-(4-methanesulfonyl-benzyl)-1-oxo-1,2-dihydro-isoquinolin-6-yl]-4-methyl-benzamide]
0.1 nM | Cc1c(F)cc(C(=O)NC2CC2)cc1-c1ccc2c(=O)n(CC3CC3)cc(CN3C[C@@H]4C[C@H]3CN4)c2c1 [Example 111, 3-(4-((1S,4S)-2,5-Diazabicyclo[2.2.1]heptan-2-ylmethyl)-2-(cyclopropylmethyl)-1-oxo-1,2-dihydroisoquinolin-6-yl)-N-cyclopropyl-5-fluoro-4-methylbenzamide]
5.01 nM | Cc1ccc(C(=O)NC2CC2)cc1-c1ccc2c(=O)n(CC3CC3)cc(CNCCN(C)C)c2c1 [Example 67, N-Cyclopropyl-3-(2-(cyclopropylmethyl)-4-((2-(dimethylamino)ethylamino)methyl)-1-oxo-1,2-dihydroisoquinolin-6-yl)-4-methylbenzamide]

test system: not listed separately; experiment: GVS (Dynamic Vapour Sorption) determination; type: physicochemical; conditions: at 80% RH (±0.2%); crystalline polymorph A
Protocol: GVS profiles were measured using a Dynamic Vapour Sorption DVS-1 instrument. The solid sample ca. 1-5 mg was placed into a glass vessel and the weight of the sample was recorded during a dual cycle step method (40 to 90 to 0 to 90 to 0% relative humidity (RH), in steps of 10% RH).

GVS weight increase | Compound
0.9 % w/w | Cc1ccc(C(=O)NC2CC2)cc1-c1ccc2c(=O)n(Cc3ccccc3)cc(C(=O)NCCN(C)C)c2c1 [Example 47, 2-Benzyl-6-(5-(cyclopropylcarbamoyl)-2-methylphenyl)-N-(2-(dimethylamino)ethyl)-1-oxo-1,2-dihydroisoquinoline-4-carboxamide]
